Data set [1] concerns primary chicken neurons. The data set is described as follows: MTT cell viability assay in primary chicken neurons. It is filed as cell-based. The note with it: for concentration above which cell viability declined: compared to vehicle control, FIG. 5, FIG. 6; for Cell viability, Mean: no MSM nor FDP, 48 h. How it is done:
Fertilized chicken eggs were stored under turning at 37.8° C. and 55% humidity until embryonic day eight. Embryos were transferred to a plastic dish and decapitated. Both hemispheres were removed, collected and cleaned from any loose tissue. Hemispheres were mechanically dissociated and 4.8×10^4 cells per well (96-well plates) were seeded in a volume of 160 μL. The cell culture medium consisted of Dubelcco's Modified Eagle's Medium with […], 5% Nu Serum, 0.01% gentamycin and 2 mM L-glutamine. Cultures were maintained at 37° C., 95% humidity and 5% CO2.
Test compositions and vehicle controls were applied to chicken neurons at day-in-vitro 8 for 48 h. On day-in-vitro 10 the viability of neurons was determined according to MTT cell viability assay using a plate reader (570 nm). That assay allows the measurement of the mitochondrial dehydrogenase activity, which reduces yellow MTT to dark blue formazan crystals. Since this reaction is catalyzed in living cells only, this assay is used for the determination of cell viability. MTT solution was added to each well in a final concentration of 0.5 mg/mL. After two hours the MTT-containing medium is aspired. Cells were lysed in 3% SDS and the formazan crystals were dissolved in isopropanol/HCl. Optical density was measured with a plate reader at 570 nm. Cell survival rage was expressed as optical density (OS). Values were calculated as percent of control values (vehicle control, which is medium).
Using the same protocol as in Example 2, primary chicken neurons were treated with varying concentrations of methylsulfonylmethane and/or fructose 1,6-diphosphate. Cell viability was determined with the MTT assay.
Using the protocol of Example 2, a formulation containing methylsulfonylmethane (0.1 μM), D-fructose 1,6-diphosphate trisodium salt hydrate (1 μM), and rutin (0.001 μM) was tested for cell viability in primary chicken neurons. Vehicle control (medium) and methylsulfonylmethane with fructose 1,6-diphosphate compositions were also tested. The results appear in FIG. 12.

For data set [2], the system named is human stem cell derived neurons. Briefly: Cell viability of human stem cell derived neurons treated with multi-component formulations (Hoechst/propidium iodide, ArrayScan VTI). It is filed as cell-based. The method, then:
Cryopreserved human stem cell derived neurons obtained from PhoenixSongs Biologicals were thawed and plated at a density of 12000 cells per well in a 384-well PDL/laminin coated plate. The neurons were maintained in a humidified environment at 37° C. with 5% CO2 for six days with periodic media changes before experimental procedures were performed. […] Cells were dosed in triplicate with 10-point dose response curves to determine if there was any protective effect (improved survival of cells) or toxicity with the test compounds versus the untreated cells. A positive control (chlorpromazine) was also used to assess cytotoxicity response in these cells. After a three-day incubation with test compositions, the cells were stained with Hoechst and propidium iodide and read on an ArrayScan VTI to determine cell viability. Results were normalized to vehicle and graphed using GraphPad Prism. […]

Turning to `CS(C)(=O)=O` [MSM, methylsulfonylmethane], the “concentration above which cell viability declined” value in data set [1] is on record as “above 5 mM”.
Turning to `O=C(COP(=O)(O)O)[C@@H](O)[C@H](O)[C@H](O)COP(=O)(O)O` [FDP, fructose 1,6-diphosphate], in data set [1], the “concentration above which cell viability declined” value was “above 0.1 mM”.
Regarding `C[C@@H]1O[C@@H](OC[C@H]2O[C@@H](Oc3c(-c4ccc(O)c(O)c4)oc4cc(O)cc(O)c4c3=O)[C@H](O)[C@@H](O)[C@@H]2O)[C@H](O)[C@H](O)[C@H]1O` [Rutin, quercetin-3-O-rutinoside], the “Cell viability, Mean” value was 96.7% of control in data set [1] (rutin 0.001 (μM), vehicle alone); 99.7% of control in data set [1] (rutin 0.01, vehicle alone); 98.1% of control in data set [1] (rutin 0.1, vehicle alone); 97.7% of control in data set [1] (rutin 1, vehicle alone); 100.2% of control in data set [1] (rutin 10, vehicle alone).
For the compound `CN(C)CCCN1c2ccccc2Sc2ccc(Cl)cc21` [Chlorpromazine, chlorpromazine], the IC50 in data set [2] (Homo sapiens, Neuron, 72 h, three-day incubation, formulations in medium with MSM 0.1 μM and FDP 1 μM, chlorpromazine without MSM and FDP, read-out: IC50 for Cell Loss) was found to be 3.8 µM. Also, in data set [2] (at comparable concentrations), the “neuron cell toxicity / safety (in words)” value is “relatively high neuron cell toxicity”.

Usually IC50 stands for the concentration that inhibits the measured activity by half.

These data come from patent US10183053B1, “Multi-component formulations” (priority 2017, dated 2019).
